{"source": "ChEMBL document CHEMBL6083201", "about": "“Identification of triazolyl KAT6 inhibitors via a templated fragment approach” (Bioorg Med Chem Lett, 2024)", "target": "Histone acetyltransferase KAT6A (Homo sapiens, UniProt Q92794)", "sequence (Q92794 whole entry)": "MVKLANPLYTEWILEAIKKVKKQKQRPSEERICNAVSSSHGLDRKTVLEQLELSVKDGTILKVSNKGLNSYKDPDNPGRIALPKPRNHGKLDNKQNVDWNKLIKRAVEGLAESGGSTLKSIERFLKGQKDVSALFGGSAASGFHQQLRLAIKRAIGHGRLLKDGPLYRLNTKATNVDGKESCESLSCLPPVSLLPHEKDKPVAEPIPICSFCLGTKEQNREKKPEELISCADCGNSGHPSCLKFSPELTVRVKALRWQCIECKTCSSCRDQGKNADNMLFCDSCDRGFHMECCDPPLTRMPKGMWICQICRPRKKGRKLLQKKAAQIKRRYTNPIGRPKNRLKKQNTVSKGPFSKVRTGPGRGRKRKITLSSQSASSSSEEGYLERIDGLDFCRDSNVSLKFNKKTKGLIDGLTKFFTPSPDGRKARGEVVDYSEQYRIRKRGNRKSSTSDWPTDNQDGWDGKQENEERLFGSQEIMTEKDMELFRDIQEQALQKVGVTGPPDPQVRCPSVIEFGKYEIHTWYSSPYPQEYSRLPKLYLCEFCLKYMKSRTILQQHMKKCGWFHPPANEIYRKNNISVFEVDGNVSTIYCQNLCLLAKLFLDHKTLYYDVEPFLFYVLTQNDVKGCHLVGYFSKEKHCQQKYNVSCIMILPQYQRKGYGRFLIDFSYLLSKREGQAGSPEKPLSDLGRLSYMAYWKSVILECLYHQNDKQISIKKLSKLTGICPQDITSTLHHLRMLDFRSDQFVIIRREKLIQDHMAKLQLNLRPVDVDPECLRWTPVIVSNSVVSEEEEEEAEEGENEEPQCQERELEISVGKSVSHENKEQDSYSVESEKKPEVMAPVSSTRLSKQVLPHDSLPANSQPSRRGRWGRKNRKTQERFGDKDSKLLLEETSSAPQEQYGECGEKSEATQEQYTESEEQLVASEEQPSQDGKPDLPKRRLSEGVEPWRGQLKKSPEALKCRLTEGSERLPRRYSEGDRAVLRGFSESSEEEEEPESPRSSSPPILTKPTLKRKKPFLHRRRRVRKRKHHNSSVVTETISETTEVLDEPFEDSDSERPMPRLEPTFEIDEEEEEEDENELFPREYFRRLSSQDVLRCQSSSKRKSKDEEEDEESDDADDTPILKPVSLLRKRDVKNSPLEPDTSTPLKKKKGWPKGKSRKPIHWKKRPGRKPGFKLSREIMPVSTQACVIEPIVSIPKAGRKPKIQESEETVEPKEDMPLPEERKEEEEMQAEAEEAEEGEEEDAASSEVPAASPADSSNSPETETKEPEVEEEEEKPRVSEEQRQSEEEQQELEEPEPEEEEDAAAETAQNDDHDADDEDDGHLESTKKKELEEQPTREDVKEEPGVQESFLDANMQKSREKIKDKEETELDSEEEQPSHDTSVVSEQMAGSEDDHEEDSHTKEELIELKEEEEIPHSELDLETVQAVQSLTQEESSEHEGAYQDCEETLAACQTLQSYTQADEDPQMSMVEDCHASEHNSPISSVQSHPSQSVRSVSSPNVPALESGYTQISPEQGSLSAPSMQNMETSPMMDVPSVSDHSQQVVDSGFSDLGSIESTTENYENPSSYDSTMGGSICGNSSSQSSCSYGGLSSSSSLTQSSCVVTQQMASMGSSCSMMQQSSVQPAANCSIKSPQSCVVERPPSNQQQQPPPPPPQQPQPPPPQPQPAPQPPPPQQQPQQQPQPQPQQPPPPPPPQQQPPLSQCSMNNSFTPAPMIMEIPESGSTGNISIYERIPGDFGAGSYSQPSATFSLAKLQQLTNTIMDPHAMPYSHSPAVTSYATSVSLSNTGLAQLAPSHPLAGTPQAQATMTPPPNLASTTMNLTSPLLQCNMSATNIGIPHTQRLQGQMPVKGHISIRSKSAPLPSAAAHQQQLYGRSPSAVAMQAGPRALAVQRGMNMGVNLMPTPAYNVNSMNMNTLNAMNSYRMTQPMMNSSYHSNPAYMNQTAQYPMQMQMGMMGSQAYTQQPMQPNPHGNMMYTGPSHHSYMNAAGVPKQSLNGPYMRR", "assay": "Inhibition of KAT6A (unknown origin)", "note": "pIC50: −log10 of the molar value.", "data": [{"smiles": "COc1ccc(C2=CCN(C)CC2)cc1-n1cc(NS(=O)(=O)c2ccccc2)nn1", "values": [{"measurement": "pIC50", "value": "< 4.00"}]}]}
